The text below walks through data of the supplement of paper PMC4862054.

What all share (assay): normalised response (% of control), CellTox Green; higher = less cell death (100 = DMSO, 0 = benzethonium chloride kill control)
Holding throughout (details): incubation time: 72 h

For assay [1], the system named is MDA-MB-231. The procedure, abridged:
(§1)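 Each value is the plate-normalised signal at one concentration of the series. Breast cancer cell lines (20 µl suspension) were incubated 72 h in 384-well plates with compound at 5 concentrations in 10-fold steps over a compound-specific 10,000-fold range. CellTox Green and then CellTiter-Glo were read, and each plate was scaled to 0.1 % DMSO (100) and a positive kill control (0).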

For assay [2], the system named is CAL-120. In short, it runs like this:
as §1

For assay [3], the system named is HDQ-P1. In short, it runs like this:
as §1

The structures appear in SMILES notation.

As to `Cc1c(N)nc([C@H](CC(N)=O)NC[C@H](N)C(N)=O)nc1C(=O)N[C@H](C(=O)N[C@H](C)[C@@H](O)[C@H](C)C(=O)N[C@H](C(=O)NCCc1nc(-c2nc(C(=O)NCCC[S+](C)C)cs2)cs1)[C@@H](C)O)[C@@H](OC1OC(CO)C(O)C(O)C1OC1OC(CO)C(O)C(OC(N)=O)C1O)c1cnc[nH]1` (stereo partly specified) [Bleomycin] (1000 nM), the figures for the normalised response in assay [1], in assay [2] and in assay [3] were 67.9%, 92.9% and 54.8%, respectively.

Regarding `Cc1c(N)nc([C@H](CC(N)=O)NC[C@H](N)C(N)=O)nc1C(=O)N[C@H](C(=O)N[C@H](C)[C@@H](O)[C@H](C)C(=O)N[C@H](C(=O)NCCc1nc(-c2nc(C(=O)NCCC[S+](C)C)cs2)cs1)[C@@H](C)O)[C@@H](OC1OC(CO)C(O)C(O)C1OC1OC(CO)C(O)C(OC(N)=O)C1O)c1cnc[nH]1` (stereo partly specified) [Bleomycin] (10000 nM), the normalised response is 78% in assay [1], 99.4% in assay [2] and 95.6% in assay [3].

As to `Cc1cc2c(F)c(Oc3ncnn4cc(OC[C@@H](C)O)c(C)c34)ccc2[nH]1` [Brivanib] (100 nM), the normalised response in assay [1] was found to be 115%; in assay [2], 104%; in assay [3], 106%.

Take `Cc1cc2c(F)c(Oc3ncnn4cc(OC[C@@H](C)O)c(C)c34)ccc2[nH]1` [Brivanib] (1000 nM): the normalised response in assay [1] stood at 102%; in assay [2], 100%; in assay [3] it was 68.8%.

With `CCCCCOC(=O)Nc1nc(=O)n([C@@H]2O[C@H](C)[C@@H](O)[C@H]2O)cc1F` [Capecitabine] (1000 nM), the normalised response in assay [2] was 102%; in assay [3], 110%.

On to `CCCCCOC(=O)Nc1nc(=O)n([C@@H]2O[C@H](C)[C@@H](O)[C@H]2O)cc1F` [Capecitabine] (10000 nM), for which the figures for the normalised response in assay [1], in assay [2] and in assay [3] were 110%, 90.2% and 94.7%, respectively.

Take `CC(C)C[C@H](NC(=O)[C@H](CCc1ccccc1)NC(=O)CN1CCOCC1)C(=O)N[C@@H](Cc1ccccc1)C(=O)N[C@@H](CC(C)C)C(=O)[C@@]1(C)CO1` [Carfilzomib] (100 nM): the results for the normalised response in assay [1], in assay [2] and in assay [3] were -17.7%, 11.9% and -12.1%, respectively.

`CC(C)C[C@H](NC(=O)[C@H](CCc1ccccc1)NC(=O)CN1CCOCC1)C(=O)N[C@@H](Cc1ccccc1)C(=O)N[C@@H](CC(C)C)C(=O)[C@@]1(C)CO1` [Carfilzomib] (1000 nM): the normalised response in assay [1] was -0.32%; in assay [2], -0.18%; in assay [3] it was -14.6%.

On to `Nc1nc(Cl)nc2c1ncn2[C@@H]1O[C@H](CO)[C@@H](O)[C@@H]1F` [Clofarabine] (1000 nM), for which the normalised response came out at 111% in assay [1], 103% in assay [2] and 101% in assay [3].

On to `Nc1nc(Cl)nc2c1ncn2[C@@H]1O[C@H](CO)[C@@H](O)[C@@H]1F` [Clofarabine] (10000 nM), for which the normalised response in assay [1] was found to be 90.7%; in assay [2], 105%; in assay [3], 112%.

As for `CCN(CC)CCOc1ccc(C(=C(Cl)c2ccccc2)c2ccccc2)cc1` [Clomifene] (1000 nM), the normalised response in assay [1] came out at 96%; in assay [2], 99.7%; in assay [3] it was 90.2%.

With `CCN(CC)CCOc1ccc(C(=C(Cl)c2ccccc2)c2ccccc2)cc1` [Clomifene] (10000 nM), in assay [1], the normalised response was -87.9%.

As to `C[C@@H]1C[C@H]2[C@@H]3CCC4=CC(=O)C=C[C@]4(C)[C@@]3(F)[C@@H](O)C[C@]2(C)[C@@]1(O)C(=O)CO` [Dexamethasone] (1000 nM), the normalised response in assay [1] amounted to 141%; in assay [2] it was 98.4%; in assay [3], 56.1%.

As to `C[C@@H]1C[C@H]2[C@@H]3CCC4=CC(=O)C=C[C@]4(C)[C@@]3(F)[C@@H](O)C[C@]2(C)[C@@]1(O)C(=O)CO` [Dexamethasone] (10000 nM), the values for the normalised response in assay [1], in assay [2] and in assay [3] were 139%, 102% and 99.2%, respectively.

Regarding `CC(C)C(=O)Nc1ccc([N+](=O)[O-])c(C(F)(F)F)c1` [Flutamide] (1000 nM), the results for the normalised response in assay [1], in assay [2] and in assay [3] were 98.5%, 102% and 114%, respectively.

Consider `CC(C)C(=O)Nc1ccc([N+](=O)[O-])c(C(F)(F)F)c1` [Flutamide] (10000 nM), for which the normalised response was 112% in assay [1], 98.1% in assay [2] and 92.3% in assay [3].

As to `COc1cc2c(Oc3ccc(NC(=O)C4(C(=O)Nc5ccc(F)cc5)CC4)cc3F)ccnc2cc1OCCCN1CCOCC1` [Foretinib] (100 nM), the normalised response in assay [1] is 65.1%; in assay [2] it was 101%; in assay [3] it was 109%.

As for `COc1cc2c(Oc3ccc(NC(=O)C4(C(=O)Nc5ccc(F)cc5)CC4)cc3F)ccnc2cc1OCCCN1CCOCC1` [Foretinib] (1000 nM), the normalised response in assay [1] was -15.4%; in assay [2], 99.9%; in assay [3], 58.9%.

As to `NC(=O)NO` [Hydroxyurea] (10000 nM), the values for the normalised response in assay [1] and in assay [2] were 113% and 95.1%, respectively.

Consider `NC(=O)NO` [Hydroxyurea] (100000 nM), for which the normalised response in assay [1] was determined as 118%; in assay [2] it was 101%; in assay [3], 110%.

Consider `O=NN(CCCl)C(=O)NC1CCCCC1` [Lomustine] (1000 nM), for which the results for the normalised response in assay [1], in assay [2] and in assay [3] were 90%, 103% and 55.3%, respectively.

For `O=NN(CCCl)C(=O)NC1CCCCC1` [Lomustine] (10000 nM), the normalised response came to 92.5% in assay [2] and 98.9% in assay [3].

With `O=C(O)CC[C@H]1CC[C@@](c2cc(F)ccc2F)(S(=O)(=O)c2ccc(Cl)cc2)CC1` [MK-0752] (100 nM), the results for the normalised response in assay [1], in assay [2] and in assay [3] were 122%, 101% and 109%, respectively.

As for `O=C(O)CC[C@H]1CC[C@@](c2cc(F)ccc2F)(S(=O)(=O)c2ccc(Cl)cc2)CC1` [MK-0752] (1000 nM), the normalised response in assay [1] was 111%; in assay [2] it was 102%; in assay [3] it was 110%.

In the case of `NC1(c2ccc(-c3nc4ccn5c(=O)[nH]nc5c4cc3-c3ccccc3)cc2)CCC1` [MK-2206] (100 nM), the results for the normalised response in assay [1], in assay [2] and in assay [3] were 110%, 101% and 108%, respectively.

Consider `NC(=O)c1cccc2cn(-c3ccc([C@@H]4CCCNC4)cc3)nc12` [MK-4827] (1000 nM), for which the normalised response in assay [1] is 120%; in assay [2] it was 98.5%.

`NC(=O)c1cccc2cn(-c3ccc([C@@H]4CCCNC4)cc3)nc12` [MK-4827] (10000 nM): the normalised response in assay [1] came out at 139%; in assay [2], 97.3%; in assay [3], 97.9%.

Consider `O=C(c1cc(Cc2n[nH]c(=O)c3ccccc23)ccc1F)N1CCN(C(=O)C2CC2)CC1` [Olaparib] (1000 nM), for which the normalised response in assay [1] came out at 100%; in assay [2], 97%; in assay [3] it was 71.5%.

`CO[C@H](C(=O)[C@@H](O)[C@@H](C)O)[C@@H]1Cc2cc3cc(O[C@H]4C[C@@H](O[C@@H]5C[C@@H](O)[C@H](O)[C@@H](C)O5)[C@H](O)[C@@H](C)O4)c(C)c(O)c3c(O)c2C(=O)[C@H]1O[C@H]1C[C@@H](O[C@@H]2C[C@@H](O)[C@@H](O[C@@H]3C[C@](C)(O)[C@H](O)[C@@H](C)O3)[C@@H](C)O2)[C@H](O)[C@@H](C)O1` [Plicamycin] (1000 nM): the normalised response came to 106% in assay [1], 103% in assay [2] and 97.8% in assay [3].

Consider `CO[C@H](C(=O)[C@@H](O)[C@@H](C)O)[C@@H]1Cc2cc3cc(O[C@H]4C[C@@H](O[C@@H]5C[C@@H](O)[C@H](O)[C@@H](C)O5)[C@H](O)[C@@H](C)O4)c(C)c(O)c3c(O)c2C(=O)[C@H]1O[C@H]1C[C@@H](O[C@@H]2C[C@@H](O)[C@@H](O[C@@H]3C[C@](C)(O)[C@H](O)[C@@H](C)O3)[C@@H](C)O2)[C@H](O)[C@@H](C)O1` [Plicamycin] (10000 nM), for which the normalised response was 55.1% in assay [1], 71.9% in assay [2] and 82.1% in assay [3].

`C[C@]12C=CC(=O)C=C1CC[C@@H]1[C@@H]2C(=O)C[C@@]2(C)[C@H]1CC[C@]2(O)C(=O)CO` [Prednisone] (1000 nM): the normalised response in assay [1] was found to be 116%; in assay [2] it was 102%; in assay [3] it was 94.4%.

For the molecule `C[C@]12C=CC(=O)C=C1CC[C@@H]1[C@@H]2C(=O)C[C@@]2(C)[C@H]1CC[C@]2(O)C(=O)CO` [Prednisone] (10000 nM), the normalised response is 114% in assay [1], -48.9% in assay [2] and 114% in assay [3].

Regarding `CC/C(=C(\c1ccccc1)c1ccc(OCCN(C)C)cc1)c1ccccc1` [Tamoxifen] (1000 nM), the results for the normalised response in assay [1] and in assay [2] were 103% and 102%, respectively.

As to `COc1cc2c(N3CCN(C(=O)Nc4ccc(OC(C)C)cc4)CC3)ncnc2cc1OCCCN1CCCCC1` [Tandutinib] (100 nM), the normalised response in assay [1] was found to be 105%; in assay [2], 97.3%.

In the case of `C[C@@H](C(=O)O)c1ccc(-c2ccccc2)c(F)c1` [Tarenflurbil] (1000 nM), the normalised response in assay [2] amounted to 100%; in assay [3], 65.7%.
